Source: publication PMC8624485, “Modeling, Synthesis, and Biological Evaluation of Potential Retinoid-X-Receptor (RXR) Selective Agonists: Analogs of 4-[1-(3,5,5,8,8-Pentamethyl-5,6,7,8-tetrahyro-2-naphthyl)ethynyl]benzoic Acid (Bexarotene) and 6-(Ethyl(4-isobutoxy-3-isopropylphenyl)amino)nicotinic Acid (NEt-4IB)” (International Journal of Molecular Sciences, 2021)
Like-named read-outs stand apart in the source and are kept apart here.

How the values were obtained:
Type in all cases: cell-based
RXRα = biological target: T1, RXRα (Homo sapiens, UniProt P19793); test: UAS/Gal4 GFP reporter assay of RXRα activation in UAS-GFP x KMT2A-MLLT3 cells
T1 construct: expressed in transfected cells; host or cells: UAS-GFP x KMT2A-MLLT3 cells (retroviral transduction)
T1 sequence (P19793 227-458 limits assumed): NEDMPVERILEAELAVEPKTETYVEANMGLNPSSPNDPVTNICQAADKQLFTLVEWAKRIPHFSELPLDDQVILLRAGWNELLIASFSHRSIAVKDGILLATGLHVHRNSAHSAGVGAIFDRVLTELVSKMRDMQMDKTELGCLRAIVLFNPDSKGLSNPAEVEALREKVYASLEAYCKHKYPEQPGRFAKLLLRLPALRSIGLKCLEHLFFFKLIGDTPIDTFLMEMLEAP
Protocol: Cells were treated, and after 48 h, GFP measured by a ZE5 Flow Cytometer (Biorad).

[1] = biological target: T2, RXR-LXR heterodimer (LXR/LXRE) (Homo sapiens, UniProt P19793); test: LXRE-luciferase transactivation assay in HEK293 cells; conditions: for LXRE Activity (% of Bex): 100 nM compound alone, HEK293, bexarotene (1) set to 100%; for LHS Score (vs. Bex): LXRE Heterodimer Specificity: LXRE:RXRE activity ratio, compound 1 set to 1.0
T2 construct: expressed in transfected cells; host or cells: HEK293 cells
T2 sequence (P19793 1-462): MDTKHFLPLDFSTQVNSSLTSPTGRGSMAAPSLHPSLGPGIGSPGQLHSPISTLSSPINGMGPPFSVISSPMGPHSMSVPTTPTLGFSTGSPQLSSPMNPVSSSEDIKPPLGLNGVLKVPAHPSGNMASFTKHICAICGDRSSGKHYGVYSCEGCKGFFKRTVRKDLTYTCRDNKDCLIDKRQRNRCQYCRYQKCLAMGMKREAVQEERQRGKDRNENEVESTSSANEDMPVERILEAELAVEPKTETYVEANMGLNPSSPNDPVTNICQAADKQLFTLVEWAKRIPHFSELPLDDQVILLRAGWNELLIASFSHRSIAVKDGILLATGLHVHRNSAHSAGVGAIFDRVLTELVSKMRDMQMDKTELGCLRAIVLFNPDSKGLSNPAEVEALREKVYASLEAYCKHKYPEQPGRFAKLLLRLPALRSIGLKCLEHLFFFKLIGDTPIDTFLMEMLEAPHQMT
T2 sequence (Q13133 1-447 partner): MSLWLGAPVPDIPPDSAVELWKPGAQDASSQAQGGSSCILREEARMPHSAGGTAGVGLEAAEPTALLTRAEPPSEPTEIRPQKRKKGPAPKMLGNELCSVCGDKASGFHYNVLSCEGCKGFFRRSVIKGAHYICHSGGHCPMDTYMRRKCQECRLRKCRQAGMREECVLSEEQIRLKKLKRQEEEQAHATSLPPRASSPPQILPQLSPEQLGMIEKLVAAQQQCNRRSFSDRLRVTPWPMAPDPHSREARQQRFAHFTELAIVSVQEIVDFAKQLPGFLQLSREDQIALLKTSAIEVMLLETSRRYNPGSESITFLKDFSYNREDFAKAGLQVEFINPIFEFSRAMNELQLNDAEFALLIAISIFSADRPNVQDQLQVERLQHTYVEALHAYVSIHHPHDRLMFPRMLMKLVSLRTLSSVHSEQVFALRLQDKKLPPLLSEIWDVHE
Protocol: The activation from this natural LXRE in our system was tested in the presence of either 100 nM RXR agonists alone or in combination with 100 nM of both the RXR agonist and LXR agonist T0901317 (TO). […] The LXRE-mediated assays were performed using human embryonic cells (HEK293) seeded at a density of 60,000 cells/well in a 24-well plate and maintained in DMEM (Hyclone) supplemented with 10% fetal bovine serum, 100 µg/mL streptomycin, 100 U/mL penicillin (Invitrogen, Carlsbad, CA, USA) at 37 degrees Celsius, 5% CO2 for 24 h. The cells were co-transfected with 250 ng of an LXRE-luciferase reporter gene, 50 ng of pSG5-human RXRα, and 20 ng of renilla control plasmid. […] After 24 h post treatment, the cells were lysed and the transcriptional activity mediated by the LXRE was measured using the Dual Luciferase Assay System (Promega, Madison, WI) in a Sirius FB12 luminometer (Berthold Detection Systems, Pforzheim, Germany) according to the manufacturer’s protocol. The data are a compilation of between three and six independent assays with each treatment group dosed in triplicate for each independent assay. […] Bars on all graphs indicate standard deviation of the replicate experiments.
Cells were transfected for 24 h utilizing a liposome-mediated transfection protocol and then treated with the ethanol vehicle, or 100 nM of the indicated compound alone or in combination with 100 nM TO901317 (TO). […] (A) Human HEK-293 cells were transfected and treated as described in Figure 8.

human RARα = biological target: T3, human RARα (Homo sapiens, UniProt P10276); test: RARE-luciferase reporter assay in HEK293 cells; conditions: HEK293, all-trans-RA set to 100%
T3 construct: expressed in transfected cells; host or cells: HEK293 cells
T3 sequence (P10276 1-462): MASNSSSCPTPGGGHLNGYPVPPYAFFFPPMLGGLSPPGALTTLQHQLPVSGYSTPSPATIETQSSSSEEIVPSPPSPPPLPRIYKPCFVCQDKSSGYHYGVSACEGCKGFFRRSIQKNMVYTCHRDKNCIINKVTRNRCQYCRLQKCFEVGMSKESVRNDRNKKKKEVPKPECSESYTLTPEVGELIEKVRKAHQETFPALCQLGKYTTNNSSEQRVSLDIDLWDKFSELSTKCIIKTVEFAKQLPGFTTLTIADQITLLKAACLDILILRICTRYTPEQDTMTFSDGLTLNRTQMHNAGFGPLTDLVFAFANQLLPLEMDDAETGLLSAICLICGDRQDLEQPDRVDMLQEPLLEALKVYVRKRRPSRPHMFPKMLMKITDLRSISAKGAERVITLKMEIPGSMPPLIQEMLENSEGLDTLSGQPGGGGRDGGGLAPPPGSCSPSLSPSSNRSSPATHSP
Protocol: Human embryonic kidney cells (HEK293) were plated at 60,000 cells per well in a 24-well plate and maintained as described above. After 24 h, the cells were transfected with 250 ng pTK-DR5(X2)-Luc, 25 ng pCMX-human RARα, and 20 ng renilla utilizing 1.25 µL polyethylenimine (PEI) per well for 24 h. The sequence of the double DR5 RARE is: 5′-[…]-3′ (DR5 responsive elements underlined). The cells were treated with ethanol vehicle (0.1%), all-trans-retinoic acid (RA, the ligand for RAR), or the indicated rexinoid at a final concentration of 10 nM. After 24 h of treatment, the retinoid activity was measured as described above (dual luciferase assay). […] Three independent assays were conducted with triplicate samples for each treatment group. The value for RA was set to 100%. […]

Saccharomyces cerevisiae = Saccharomyces cerevisiae toxicity assay; conditions: 3 h incubation, colony count vs DMSO only control; highest concentration tested 11 µg/µL
Protocol: These compounds were also assessed for mutagenicity and toxicity in Saccharomyces cerevisiae and the toxicity results are summarized in Table 1. No compound was mutagenic in this assay.
All compounds were tested for toxicity and mutagenicity using a Saccharomyces cerevisiae based assay as described previously. Toxicity was assessed in this assay (Table 1), comparing growth on plates to control treatments. Compounds were solubilized in DMSO at increasing concentrations and cells were incubated with the compounds for 3 h before plating on selective media or YPD to assess toxicity and mutagenicity. Cytotoxicity was assessed as described. Growth of colonies on the full nutrient YPD plate for each treatment was compared to the DMSO only control. The concentration at which 50% cell death (as indicated by colony count compared to DMSO only control) +/−10% cell death is reported as the 50% killing rate. The highest concentration tested was 11 µg/µL.

[2] = RXRα activation, value (SD), Table 1 does not say whether GFP or Luc assay, read-out: EC50 (nM) +/−(SD)

| SMILES | EC50 (RXRα; [2]) [nM] | LXRE Activity (% of Bex) [1] | LHS Score (vs. Bex) [1] | RARE Activity (%RA at 10 nM) (human RARα) [%RA] | Cyto-Toxicity (50% Cell Death) (Saccharomyces cerevisiae) | EC50 (RXRα) [nM] | LXRE activity in combination with LXR ligand T0901317 (TO) ([1]; 100 nM compound + 100 nM T0901317, HEK293, compared with TO+1) |
| --- | --- | --- | --- | --- | --- | --- | --- |
| C=C(c1ccc2c(c1)C(C)(C)CCC2(C)C)c1ncc(C(=O)O)cn1 [Compound 34, 2-(1-(5,5,8,8-tetramethyl-5,6,7,8-tetrahydronaphthalen-2-yl)vinyl)pyrimidine-5-carboxylic acid] | 56.2 | 77.6 % of Bex | 0.70 | 10.3 | none |  |  |
| C=C(c1ccc(C(=O)O)c(O)c1)c1cc2c(cc1C)C(C)(C)CCC2(C)C [Compound 37a, 2-Hydroxy-4-(1-(3,5,5,8,8-pentamethyl-5,6,7,8-tetrahydronaphthalen-2-yl)vinyl)benzoic acid] | 24.2 | 91.1 % of Bex | 0.45 | 2.9 | 1 µg/µL |  |  |
| C=C(c1ccc(C(=O)O)c(O)c1)c1ccc2c(c1)C(C)(C)CCC2(C)C [Compound 37b, 2-Hydroxy-4-(1-(5,5,8,8-tetramethyl-5,6,7,8-tetrahydronaphthalen-2-yl)vinyl)benzoic Acid] | 413 | 69.1 % of Bex | 0.91 | 5.2 | 0.5 µg/µL |  |  |
| CCN(c1ccc(C(=O)O)cc1)c1ccc(OCC(C)C)c(C(C)C)c1 [Compound 30, 4-(ethyl(4-isobutoxy-3-isopropylphenyl)amino)benzoic acid] | 397 | 60.2 % of Bex |  | 1.1 | 0.08 µg/µL |  |  |
| CC1(C)CCC(C)(C)c2cc(C3(c4ncc(C(=O)O)cn4)CC3)ccc21 [Compound 35, 2-(1-(5,5,8,8-tetramethyl-5,6,7,8-tetrahydronaphthalen-2-yl)cyclopropyl)pyrimidine-5-carboxylic acid] | 1.3 | 60.6 % of Bex |  | 5.1 | none |  |  |
| C=C(c1ccc(C(=O)O)cc1)c1cc2c(cc1C)C(C)(C)CCC2(C)C [Compound 1, reference compound] |  |  |  |  | 0.5 µg/µL |  |  |
| Cc1cc2c(cc1C1(c3ncc(C(=O)O)cn3)CC1)C(C)(C)CC2(C)C [Compound 33, 2-(1-(1,1,3,3,6-pentamethyl-2,3-dihydro-1H-inden-5-yl)cyclopropyl)pyrimidine-5-carboxylic Acid] | 17 | 50.9 % of Bex | 0.38 | 5.9 | none |  |  |
| C=C(c1ccc(C(=O)O)cc1)c1ccc2c(c1)C(C)(C)CCC2(C)C [Compound 27, 4-(1-(5,5,8,8-tetramethyl-5,6,7,8-tetrahydronaphthalen-2-yl)vinyl)benzoic acid, reference compound] |  | 82.4 % of Bex | 1.0 | 1.5 | 0.5 µg/µL | 171 |  |
| CCN(c1ccc(OCC(C)C)c(C(C)C)c1)c1ncc(C(=O)O)cn1 [Compound 28, 2-(ethyl(4-isobutoxy-3-isopropylphenyl)amino)pyrimidine-5-carboxylic acid] | 297 | 77.7 % of Bex |  | 1.6 | 1 µg/µL |  |  |
| C=C(c1ccc(C(=O)O)cc1)c1cc2c(cc1C)C(C)(C)CC2(C)C [Compound 26, reference compound] | 70.1 | 94.5 % of Bex | 0.66 | 3.0 | none |  | higher activity than TO+1 |
| C=C(c1ccc(C(=O)O)c(F)c1)c1ccc2c(c1)C(C)(C)CCC2(C)C [Compound 36, 2-fluoro-4-(1-(5,5,8,8-tetramethyl-5,6,7,8-tetrahydronaphthalen-2-yl)vinyl)benzoic Acid] | 375 | 85.2 % of Bex |  | 1.4 | 0.08 µg/µL |  |  |
| CCN(c1ccc(OCC(C)C)c(C(C)C)c1)c1ccc(C(=O)O)cn1 [Compound 25, 6-(ethyl(4-isobutoxy-3-isopropylphenyl)amino)nicotinic acid] | 274 | 72.4 % of Bex |  | 2.9 | none |  |  |
| C=C(c1ncc(C(=O)O)cn1)c1cc2c(cc1C)C(C)(C)CC2(C)C [Compound 32, 2-(1-(1,1,3,3,6-pentamethyl-2,3-dihydro-1H-inden-5-yl)vinyl)pyrimidine-5-carboxylic Acid] | 34.4 | 46.0 % of Bex | 0.38 | 12.9 | none |  |  |
